Test results published in patent US20230265151A1, “GIP/GLP1 CO-AGONIST COMPOUNDS” (priority 2020, published 2023).
Read-outs that look alike come from different tables or passages of the source. Where a SMILES comes first, the peptide text is derived from it. Side-chain parts run from the residue outwards. [ ]: non-standard residue; d: D form. The star is where a group is joined. αMePhe(2-F) = C[C@](N)(Cc1ccccc1F)C(=O)O; C14 diacid = O=C(O)CCCCCCCCCCCCC(=O)*; αMeY = C[C@](N)(Cc1ccc(O)cc1)C(=O)O; 4Pal = N[C@@H](Cc1ccncc1)C(=O)O; αMeL = CC(C)C[C@](C)(N)C(=O)O; Orn = NCCC[C@H](N)C(=O)O; AEEA = NCCOCCOCC(=O)O; Aib = CC(C)(N)C(=O)O

Tests used:
Assay type in all cases: cell-based
hGLP-1R = hGLP-1R (Homo sapiens, UniProt P43220); assay: Functional cAMP formation (HTRF) in HEK-293 clonal cells expressing hGLP-1R, 0.1% bovine casein, without or with 1.0% human serum albumin; design: expressed in transfected cells; settings: for EC50: geometric mean, read-out: hGLP-1R EC50, nM (SEM, n); for Emax: read-out: hGLP-1R Emax, % ± SEM
Chain of hGLP-1R (P43220 24-463): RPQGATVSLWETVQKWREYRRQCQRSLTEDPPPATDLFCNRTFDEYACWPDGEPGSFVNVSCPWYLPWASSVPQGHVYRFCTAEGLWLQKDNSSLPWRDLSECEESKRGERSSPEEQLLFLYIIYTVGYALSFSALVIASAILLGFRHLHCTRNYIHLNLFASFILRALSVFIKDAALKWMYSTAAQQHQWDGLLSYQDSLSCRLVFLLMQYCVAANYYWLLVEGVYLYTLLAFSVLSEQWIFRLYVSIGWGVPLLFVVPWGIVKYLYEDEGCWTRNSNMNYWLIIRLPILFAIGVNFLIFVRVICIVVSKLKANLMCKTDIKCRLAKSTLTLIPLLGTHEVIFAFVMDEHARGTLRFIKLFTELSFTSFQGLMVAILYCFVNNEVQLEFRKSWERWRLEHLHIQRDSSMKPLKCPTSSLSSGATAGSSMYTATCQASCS
In short: (§1)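 Cells were stimulated with peptide for 30 min at 37° C, then lysed in buffer carrying cAMP-d2 and anti-cAMP Eu3+-cryptate for a competitive HTRF read after at least 60 min at room temperature. The 665/620 nm ratio was converted to nM cAMP against a standard curve.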

hGIPR = target: T1, hGIPR (Homo sapiens, UniProt P48546); assay: Functional cAMP formation (HTRF) in HEK-293 clonal cells expressing hGIPR, 0.1% bovine casein, without or with 1.0% human serum albumin; settings: for Emax: read-out: hGIPR Emax, % ± SEM; for EC50: geometric mean, read-out: hGIPR EC50, nM (SEM, n)
T1 construct: expressed in transfected cells
T1 sequence (P48546 22-466): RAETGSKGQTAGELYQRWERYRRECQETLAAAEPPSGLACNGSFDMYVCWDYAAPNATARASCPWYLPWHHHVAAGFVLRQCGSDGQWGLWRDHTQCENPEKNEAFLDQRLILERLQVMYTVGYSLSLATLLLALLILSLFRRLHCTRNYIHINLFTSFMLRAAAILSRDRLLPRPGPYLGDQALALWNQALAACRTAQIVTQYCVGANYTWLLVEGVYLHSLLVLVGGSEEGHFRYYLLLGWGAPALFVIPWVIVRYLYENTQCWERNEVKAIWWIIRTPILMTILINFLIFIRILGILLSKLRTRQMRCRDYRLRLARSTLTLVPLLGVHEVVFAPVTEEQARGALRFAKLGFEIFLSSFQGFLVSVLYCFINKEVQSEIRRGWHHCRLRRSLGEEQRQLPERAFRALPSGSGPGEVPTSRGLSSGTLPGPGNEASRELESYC
In short: as §1

hGCGR = target: T2, hGCGR (Homo sapiens, UniProt P47871); assay: Functional cAMP formation (HTRF) in HEK-293 clonal cells expressing hGCGR, 0.1% bovine casein, without or with 1.0% human serum albumin; settings: geometric mean, read-out: hGCGR EC50, nM (SEM, n)
T2 construct: expressed in transfected cells
T2 sequence (P47871 26-477): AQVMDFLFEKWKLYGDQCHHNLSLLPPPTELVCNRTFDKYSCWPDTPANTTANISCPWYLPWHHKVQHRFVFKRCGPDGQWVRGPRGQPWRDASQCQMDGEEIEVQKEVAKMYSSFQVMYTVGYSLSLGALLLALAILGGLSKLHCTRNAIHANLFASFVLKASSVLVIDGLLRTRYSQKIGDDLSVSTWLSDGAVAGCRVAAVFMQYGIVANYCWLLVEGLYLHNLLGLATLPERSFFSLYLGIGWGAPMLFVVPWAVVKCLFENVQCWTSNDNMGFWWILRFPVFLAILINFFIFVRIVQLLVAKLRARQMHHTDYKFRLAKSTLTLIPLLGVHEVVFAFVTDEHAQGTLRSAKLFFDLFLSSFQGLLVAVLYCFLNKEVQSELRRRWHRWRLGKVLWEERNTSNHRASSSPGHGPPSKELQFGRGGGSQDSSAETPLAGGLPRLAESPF
In short: as §1

[1] = 0.1% bovine casein and 1.0% human serum albumin, 37° C.
[2] = HEK293, 0.1% bovine casein and 1.0% human serum albumin, 37° C., percent of maximal response to GLP-1(7-36)NH2
[3] = HEK293, percent of maximal response to GLP-1(7-36)NH2, 37° C., 0.1% bovine casein, arithmetic mean
[4] = HEK293, 0.1% bovine casein and 1.0% human serum albumin, 37° C., percent of maximal response to GIP(1-42)NH2
[5] = HEK293, percent of maximal response to GIP(1-42)NH2, 37° C., 0.1% bovine casein, arithmetic mean
[6] = cAMP, incubated at 37° C., 0.1% bovine casein (no human serum albumin)

Row | Structure (SMILES) | EC50 (hGLP-1R; [1]) | Emax (hGLP-1R; [2]) | Emax (hGLP-1R; [3]) | Emax (hGIPR; [4]) | Emax (hGIPR; [5]) | EC50 (hGIPR; [6]) | EC50 (hGCGR; [1]) | EC50 (hGCGR; [6]) | EC50 (hGLP-1R; [6]) | EC50 (hGIPR; [1])
1 | CC[C@H](C)[C@H](NC(=O)[C@H](CC(C)C)NC(=O)[C@](C)(Cc1ccc(O)cc1)NC(=O)[C@@H](CCC(=O)O)NC(=O)[C@@H](NC(=O)[C@H](Cc1ccccc1)NC(=O)[C@H](CCC(=O)O)NC(=O)C(C)(C)NC(=O)[C@H](CCC(N)=O)NC(=O)[C@H](C)NC(=O)[C@H](CCCCNC(=O)COCCOCCNC(=O)COCCOCCNC(=O)CCCCCCCCCCCCC(=O)O)NC(=O)[C@H](CCCN)NC(=O)[C@H](CC(=O)O)NC(=O)[C@H](CC(C)C)NC(=O)[C@](C)(CC(C)C)NC(=O)[C@@H](NC(=O)[C@H](CO)NC(=O)[C@H](Cc1ccncc1)NC(=O)[C@H](CC(=O)O)NC(=O)[C@H](CO)NC(=O)[C@@H](NC(=O)[C@](C)(Cc1ccccc1F)NC(=O)[C@@H](NC(=O)CNC(=O)[C@H](CCC(=O)O)NC(=O)C(C)(C)NC(=O)[C@@H](N)Cc1ccc(O)cc1)[C@@H](C)O)[C@@H](C)O)[C@@H](C)CC)[C@@H](C)CC)C(=O)N[C@@H](CCC(=O)O)C(=O)NCC(=O)NCC(=O)N1CCC[C@H]1C(=O)N[C@@H](CO)C(=O)N[C@@H](CO)C(=O)NCC(=O)N[C@@H](C)C(=O)N1CCC[C@H]1C(=O)N1CCC[C@H]1C(=O)N1CCC[C@H]1C(=O)N[C@@H](CO)C(=O)N[C@@H](CCCCNC(=O)COCCOCCNC(=O)COCCOCCNC(=O)CCCCCCCCCCCCC(=O)O)C(N)=O [Example 221] | 17.9 nM | 92.3% | 83% | 67.4% | 81.8% | 0.0279 nM | > 9950 nM | > 9950 nM |  | 
2 | CC[C@H](C)[C@H](NC(=O)[C@H](CCCN)NC(=O)[C@H](CC(=O)O)NC(=O)[C@H](CC(C)C)NC(=O)[C@](C)(CC(C)C)NC(=O)[C@@H](NC(=O)[C@H](CO)NC(=O)[C@H](Cc1ccncc1)NC(=O)[C@H](CC(=O)O)NC(=O)[C@H](CO)NC(=O)[C@@H](NC(=O)[C@](C)(Cc1ccccc1F)NC(=O)[C@@H](NC(=O)CNC(=O)[C@H](CCC(=O)O)NC(=O)C(C)(C)NC(=O)[C@@H](N)Cc1ccc(O)cc1)[C@@H](C)O)[C@@H](C)O)[C@@H](C)CC)C(=O)N[C@@H](C)C(=O)N[C@@H](CCC(N)=O)C(=O)NC(C)(C)C(=O)N[C@@H](CCCCNC(=O)COCCOCCNC(=O)COCCOCCNC(=O)CCCCCCCCCCCCC(=O)O)C(=O)N[C@@H](Cc1ccccc1)C(=O)N[C@H](C(=O)N[C@H](CCC(=O)O)C(=O)N[C@@](C)(Cc1ccc(O)cc1)C(=O)N[C@@H](CC(C)C)C(=O)N[C@H](C(=O)N[C@@H](CCCCNC(=O)COCCOCCNC(=O)COCCOCCNC(=O)CCCCCCCCCCCCC(=O)O)C(=O)NCC(=O)NCC(=O)N1CCC[C@H]1C(=O)N[C@@H](CO)C(=O)N[C@@H](CO)C(=O)NCC(=O)N[C@@H](C)C(=O)N1CCC[C@H]1C(=O)N1CCC[C@H]1C(=O)N1CCC[C@H]1C(=O)N[C@@H](CO)C(N)=O)[C@@H](C)CC)[C@@H](C)CC [Example 222] |  | 117% | 91.6% | 77.9% | 98.7% | 0.0195 nM | > 9950 nM | > 9950 nM | 0.518 nM | 
3 | CC[C@H](C)[C@H](NC(=O)[C@H](CCCN)NC(=O)[C@H](CC(=O)O)NC(=O)[C@H](CC(C)C)NC(=O)[C@](C)(CC(C)C)NC(=O)[C@@H](NC(=O)[C@H](CO)NC(=O)[C@H](Cc1ccncc1)NC(=O)[C@H](CC(=O)O)NC(=O)[C@H](CO)NC(=O)[C@@H](NC(=O)[C@](C)(Cc1ccccc1F)NC(=O)[C@@H](NC(=O)CNC(=O)[C@H](CCC(=O)O)NC(=O)C(C)(C)NC(=O)[C@@H](N)Cc1ccc(O)cc1)[C@@H](C)O)[C@@H](C)O)[C@@H](C)CC)C(=O)N[C@@H](C)C(=O)N[C@@H](CCC(N)=O)C(=O)NC(C)(C)C(=O)N[C@@H](CCC(=O)O)C(=O)N[C@@H](Cc1ccccc1)C(=O)N[C@H](C(=O)N[C@H](CCC(=O)O)C(=O)N[C@@](C)(Cc1ccc(O)cc1)C(=O)N[C@@H](CC(C)C)C(=O)N[C@H](C(=O)N[C@@H](CCCCNC(=O)COCCOCCNC(=O)COCCOCCNC(=O)CCCCCCCCCCCCC(=O)O)C(=O)NCC(=O)NCC(=O)N1CCC[C@H]1C(=O)N[C@@H](CO)C(=O)N[C@@H](CO)C(=O)NCC(=O)N[C@@H](C)C(=O)N1CCC[C@H]1C(=O)N1CCC[C@H]1C(=O)N1CCC[C@H]1C(=O)N[C@@H](CO)C(=O)N[C@@H](CCCCNC(=O)COCCOCCNC(=O)COCCOCCNC(=O)CCCCCCCCCCCCC(=O)O)C(N)=O)[C@@H](C)CC)[C@@H](C)CC [Example 223] (H-Y[Aib]EGT[αMePhe(2-F)]TSD[4Pal]SI[αMeL]LD[Orn]IAQ[Aib]EFI[dE][αMeY]LIK([AEEA-AEEA-C14 diacid])GGPSSGAPPPSK([AEEA-AEEA-C14 diacid])-NH2) |  | 115% | 94% | 79.2% |  | 0.0252 nM | > 9950 nM | > 9950 nM | 1.43 nM | 7.84 nM
4 | CC[C@H](C)[C@H](NC(=O)[C@H](CC(C)C)NC(=O)[C@](C)(Cc1ccc(O)cc1)NC(=O)[C@@H](CCC(=O)O)NC(=O)[C@@H](NC(=O)[C@H](Cc1ccccc1)NC(=O)[C@H](CCC(=O)O)NC(=O)C(C)(C)NC(=O)[C@H](CCC(N)=O)NC(=O)[C@H](C)NC(=O)[C@H](CCCCNC(=O)COCCOCCNC(=O)COCCOCCNC(=O)COCCOCCNC(=O)CC[C@H](NC(=O)CCCCCCCCCCCCC(=O)O)C(=O)O)NC(=O)[C@H](CCCN)NC(=O)[C@H](CC(=O)O)NC(=O)[C@H](CC(C)C)NC(=O)[C@](C)(CC(C)C)NC(=O)[C@@H](NC(=O)[C@H](CO)NC(=O)[C@H](Cc1ccncc1)NC(=O)[C@H](CC(=O)O)NC(=O)[C@H](CO)NC(=O)[C@@H](NC(=O)[C@](C)(Cc1ccccc1F)NC(=O)[C@@H](NC(=O)CNC(=O)[C@H](CCC(=O)O)NC(=O)C(C)(C)NC(=O)[C@@H](N)Cc1ccc(O)cc1)[C@@H](C)O)[C@@H](C)O)[C@@H](C)CC)[C@@H](C)CC)C(=O)N[C@@H](CCCCNC(=O)COCCOCCNC(=O)COCCOCCNC(=O)COCCOCCNC(=O)CC[C@H](NC(=O)CCCCCCCCCCCCC(=O)O)C(=O)O)C(=O)NCC(=O)NCC(=O)N1CCC[C@H]1C(=O)N[C@@H](CO)C(=O)N[C@@H](CO)C(=O)NCC(=O)N[C@@H](C)C(=O)N1CCC[C@H]1C(=O)N1CCC[C@H]1C(=O)N1CCC[C@H]1C(=O)N[C@@H](CO)C(N)=O [Example 224] |  |  | 88.4% | 90.6% | 109% |  | > 9950 nM | > 9950 nM | 7.51 nM | 2.92 nM
5 | CC[C@H](C)[C@H](NC(=O)[C@H](CC(C)C)NC(=O)[C@](C)(Cc1ccc(O)cc1)NC(=O)[C@@H](CCC(=O)O)NC(=O)[C@@H](NC(=O)[C@H](Cc1ccccc1)NC(=O)[C@H](CCC(=O)O)NC(=O)C(C)(C)NC(=O)[C@H](CCC(N)=O)NC(=O)[C@H](C)NC(=O)[C@H](CCCCNC(=O)COCCOCCNC(=O)COCCOCCNC(=O)COCCOCCNC(=O)CC[C@H](NC(=O)CCCCCCCCCCCCC(=O)O)C(=O)O)NC(=O)[C@H](CCCN)NC(=O)[C@H](CC(=O)O)NC(=O)[C@H](CC(C)C)NC(=O)[C@](C)(CC(C)C)NC(=O)[C@@H](NC(=O)[C@H](CO)NC(=O)[C@H](Cc1ccncc1)NC(=O)[C@H](CC(=O)O)NC(=O)[C@H](CO)NC(=O)[C@@H](NC(=O)[C@](C)(Cc1ccccc1F)NC(=O)[C@@H](NC(=O)CNC(=O)[C@H](CCC(=O)O)NC(=O)C(C)(C)NC(=O)[C@@H](N)Cc1ccc(O)cc1)[C@@H](C)O)[C@@H](C)O)[C@@H](C)CC)[C@@H](C)CC)C(=O)N[C@@H](CCC(=O)O)C(=O)NCC(=O)NCC(=O)N1CCC[C@H]1C(=O)N[C@@H](CO)C(=O)N[C@@H](CO)C(=O)NCC(=O)N[C@@H](C)C(=O)N1CCC[C@H]1C(=O)N1CCC[C@H]1C(=O)N1CCC[C@H]1C(=O)N[C@@H](CO)C(=O)N[C@@H](CCCCNC(=O)COCCOCCNC(=O)COCCOCCNC(=O)COCCOCCNC(=O)CC[C@H](NC(=O)CCCCCCCCCCCCC(=O)O)C(=O)O)C(N)=O [Example 225] | 51.6 nM |  | 92.1% | 67.5% | 105% |  | > 9950 nM | > 9950 nM |  | 1.81 nM
